Laboratory results: doi:10.1101/2023.02.21.529347v1 (biorxiv, 2023)

Key:
Assay in all cases: apparent steady-state kinetics of F420H2-dependent alkene reduction
[1] = biological target: T1, MSMEG_2850 (Mycolicibacterium smegmatis, UniProt A0QW82); assay type: biochemical; settings: substrate inhibition constant; co-substrate F420H2
T1 sequence (A0QW82 1-140): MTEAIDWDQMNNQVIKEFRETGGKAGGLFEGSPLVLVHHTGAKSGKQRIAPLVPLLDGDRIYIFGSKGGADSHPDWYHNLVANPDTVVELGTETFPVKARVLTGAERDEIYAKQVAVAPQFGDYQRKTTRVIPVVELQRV

[2] = biological target: T2, MSMEG_2027 (Mycolicibacterium smegmatis, UniProt A0QU01); assay type: biochemical; settings: substrate inhibition constant; co-substrate F420H2
T2 sequence (A0QU01 1-140): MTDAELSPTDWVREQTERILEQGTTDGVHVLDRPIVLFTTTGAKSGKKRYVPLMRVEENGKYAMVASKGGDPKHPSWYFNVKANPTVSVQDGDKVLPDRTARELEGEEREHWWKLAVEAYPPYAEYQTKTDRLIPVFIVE

[3] = biological target: T1, MSMEG_2850; settings: co-substrate F420H2; apparent value

Row | Ki [1] [mM] | Ki [2] [mM] | Km [3] [µM] | SMILES
1 | 47.9 ± 10.0 | 26.9 ± 11.4 | – | CC1=CC(=O)CC(C)(C)C1=O [7a, ketoisophorone]
2 | – | – | 180 ± 30 | CC1=CC(=O)[C@H]2C[C@@H]1C2(C)C [9a, (1S,5S)-(-)-verbenone]
